The source made the active and inactive calls. The calls are words filed in the database; no cut-off is given here.
Key:
Mus musculus [1] = assay: Neurotoxicity in i.p. dosed Mus musculus (mouse) assessed as motor impairment measured at 4 hr by rotarod test; type: toxicity, organism-based; details: in vivo, ip
Mus musculus [2] = assay: Anticonvulsant activity in i.p. dosed Mus musculus (mouse) assessed as protection against maximal-electric shock-induced seizures measured at 0.5 hr; type: functional; details: ip, read-out: MED
Mus musculus [3] = assay: Anticonvulsant activity in Mus musculus (mouse) assessed as protection against scMET-induced clonic seizures at 30 to 300 mg/kg, ip measured at 0.5 to 4 hr; type: functional, organism-based
Mus musculus [4] = assay: Neurotoxicity in Mus musculus (mouse) assessed as motor impairment at 30 to 300 mg/kg, ip measured at 0.5 hr by rotarod test; type: toxicity, organism-based; set-up: dose 30-300 mg/kg, route intraperitoneal; details: in vivo
Mus musculus [5] = assay: Anticonvulsant activity in i.p. dosed Mus musculus (mouse) assessed as protection against maximal-electric shock-induced seizures measured at 4 hr; type: functional; details: ip, read-out: MED
Mus musculus [6] = assay: Anticonvulsant activity in Mus musculus (mouse) assessed as protection against maximal-electric shock-induced seizures at 30 to 300 mg/kg, ip measured at 4 hr; type: functional, organism-based
Mus musculus [7] = assay: Anticonvulsant activity in Mus musculus (mouse) assessed as protection against maximal-electric shock-induced seizures at 30 to 300 mg/kg, ip measured at 0.5 hr; type: functional, organism-based
Mus musculus [8] = assay: Neurotoxicity in Mus musculus (mouse) assessed as motor impairment at 30 to 300 mg/kg, ip measured at 4 hr by rotarod test; type: toxicity, organism-based; set-up: dose 30-300 mg/kg, route intraperitoneal; details: in vivo
Mus musculus [9] = assay: Neurotoxicity in i.p. dosed Mus musculus (mouse) assessed as motor impairment measured at 0.5 hr by rotarod test; type: toxicity, organism-based; details: in vivo, ip
Mus musculus [10] = assay: Anticonvulsant activity in Mus musculus (mouse) assessed as protection against 6 Hz psychomotor-induced clonic seizures at 100 mg/kg, i.p. measured at 4 hr relative to control; type: functional
Mus musculus [11] = assay: Anticonvulsant activity in Mus musculus (mouse) assessed as protection against 6 Hz psychomotor-induced clonic seizures at 100 mg/kg, i.p. measured at 1 hr relative to control; type: functional
Mus musculus [12] = assay: Anticonvulsant activity in Mus musculus (mouse) assessed as protection against 6 Hz psychomotor-induced clonic seizures at 100 mg/kg, ip measured at 2 hr relative to control; type: functional
Mus musculus [13] = assay: Neurotoxicity in Mus musculus (mouse) assessed as motor impairment at 100 mg/kg, ip measured at 0.25 hr by rotarod test relative to control; type: toxicity, organism-based; set-up: dose 100 mg/kg, route intraperitoneal; details: in vivo
Mus musculus [14] = assay: Neurotoxicity in Mus musculus (mouse) assessed as motor impairment at 100 mg/kg, ip measured at 4 hr by rotarod test relative to control; type: toxicity, organism-based; set-up: dose 100 mg/kg, route intraperitoneal; details: in vivo
Mus musculus [15] = assay: Neurotoxicity in Mus musculus (mouse) assessed as motor impairment at 100 mg/kg, ip measured at 2 hr by rotarod test relative to control; type: toxicity, organism-based; set-up: dose 100 mg/kg, route intraperitoneal; details: in vivo
Mus musculus [16] = assay: Neurotoxicity in Mus musculus (mouse) assessed as motor impairment at 100 mg/kg, ip measured at 0.5 hr by rotarod test relative to control; type: toxicity, organism-based; set-up: dose 100 mg/kg, route intraperitoneal; details: in vivo
Mus musculus [17] = assay: Anticonvulsant activity in Mus musculus (mouse) assessed as protection against 6 Hz psychomotor-induced clonic seizures at 100 mg/kg, i.p. measured at 0.5 hr relative to control; type: functional
Mus musculus [18] = assay: Neurotoxicity in Mus musculus (mouse) assessed as motor impairment at 100 mg/kg, ip measured at 1 hr by rotarod test relative to control; type: toxicity, organism-based; set-up: dose 100 mg/kg, route intraperitoneal; details: in vivo
Mus musculus [19] = assay: Anticonvulsant activity in Mus musculus (mouse) assessed as protection against 6 Hz psychomotor-induced clonic seizures at 100 mg/kg, i.p. measured at 0.25 hr relative to control; type: functional

Structure (SMILES)	Activity (Mus musculus [3])	Activity (Mus musculus [4])	minimal effective dose (Mus musculus [5])	Activity (Mus musculus [6])	Activity (Mus musculus [7])	Activity (Mus musculus [8])	Activity (Mus musculus [13])	Activity (Mus musculus [14])	Activity (Mus musculus [15])	Activity (Mus musculus [16])	Activity (Mus musculus [18])	also measured
COc1ccc(/C(C)=N/NC(=O)Nc2ccccc2Cl)cc1	inactive	Non-toxic	300 mg/kg									MTC (Mus musculus [1]): 300 mg/kg; minimal effective dose (Mus musculus [2]): 300 mg/kg
Cc1ccc(NC(=O)N/N=C/c2ccccc2Cl)cc1	inactive	Non-toxic		inactive	inactive	Non-toxic						
O=C(N/N=C/c1ccc(Cl)cc1)Nc1ccccc1Cl	inactive	Non-toxic		inactive	inactive	Non-toxic						
C/C(=N\NC(=O)Nc1ccc(C)cc1)c1ccc(O)cc1O	inactive	Non-toxic		inactive	inactive	Non-toxic						
CC(=O)C/C(C)=N/NC(=O)Nc1ccc(C)cc1	inactive	Non-toxic		inactive	inactive	Non-toxic						
O=C(N/N=C/c1cccc(O)c1)Nc1ccccc1Cl	inactive	Non-toxic		inactive	inactive	Non-toxic						
NC(=O)N1c2ccccc2C=Cc2ccccc21 [CARBAMAZEPINE]	inactive		100 mg/kg									MTC (Mus musculus [1]): 300 mg/kg; minimal effective dose (Mus musculus [2]): 30 mg/kg; MTC (Mus musculus [9]): 100 mg/kg
C/C(=N\NC(=O)Nc1ccc(C)cc1)c1ccccc1O	inactive	Non-toxic		inactive	inactive	Non-toxic						
Cc1ccc(NC(=O)N/N=C/c2cccc(O)c2)cc1	inactive	Non-toxic		inactive	inactive	Non-toxic	Non-toxic	Non-toxic	Non-toxic	Non-toxic	Non-toxic	Activity (Mus musculus [10]): inactive; Activity (Mus musculus [11]): inactive; Activity (Mus musculus [12]; route intraperitoneal): 25%; Activity (Mus musculus [17]; route intraperitoneal): 25%; Activity (Mus musculus [19]; route intraperitoneal): 50%
Cc1ccc(NC(=O)NN=C2CCCCC2)cc1	inactive	Non-toxic	300 mg/kg		inactive	Non-toxic	Non-toxic	Non-toxic	Non-toxic	Non-toxic	Non-toxic	Activity (Mus musculus [10]; route intraperitoneal): 25%; Activity (Mus musculus [11]; route intraperitoneal): 50%; Activity (Mus musculus [12]): inactive; Activity (Mus musculus [17]; route intraperitoneal): 100%; Activity (Mus musculus [19]; route intraperitoneal): 25%
C/C(=N\NC(=O)Nc1ccccc1Cl)c1ccc(Cl)cc1	inactive	Non-toxic	100 mg/kg		inactive	Non-toxic	Non-toxic	Non-toxic	Non-toxic	Non-toxic	Non-toxic	Activity (Mus musculus [10]): inactive; Activity (Mus musculus [11]; route intraperitoneal): 50%; Activity (Mus musculus [12]): inactive; Activity (Mus musculus [17]): inactive; Activity (Mus musculus [19]): inactive
O=C1NC(=O)C(c2ccccc2)(c2ccccc2)N1 [PHENYTOIN]	inactive		30 mg/kg									MTC (Mus musculus [1]): 100 mg/kg; minimal effective dose (Mus musculus [2]): 30 mg/kg; MTC (Mus musculus [9]): 100 mg/kg
COc1cc(/C=N/NC(=O)Nc2ccc(C)cc2)ccc1O	inactive	Non-toxic		inactive	inactive	Non-toxic						
NNC(=O)Nc1ccccc1Cl	inactive	Non-toxic		inactive	inactive	Non-toxic	25%	25%	Non-toxic	25%	25%	Activity (Mus musculus [10]): Active; Activity (Mus musculus [11]; route intraperitoneal): 100%; Activity (Mus musculus [12]; route intraperitoneal): 100%; Activity (Mus musculus [17]; route intraperitoneal): 100%; Activity (Mus musculus [19]; route intraperitoneal): 100%
O=C(N/N=C/c1ccc(O)cc1)Nc1ccccc1Cl	inactive	Non-toxic	100 mg/kg		inactive	Non-toxic	Non-toxic	Non-toxic	Non-toxic	Non-toxic	Non-toxic	Activity (Mus musculus [10]): inactive; Activity (Mus musculus [11]; route intraperitoneal): 50%; Activity (Mus musculus [12]; route intraperitoneal): 50%; Activity (Mus musculus [17]; route intraperitoneal): 100%; Activity (Mus musculus [19]; route intraperitoneal): 50%
Cc1ccc(NC(=O)NN)cc1	inactive	Non-toxic		inactive			Non-toxic	50%	25%	Non-toxic	Non-toxic	MTC (Mus musculus [1]): 300 mg/kg; Activity (Mus musculus [10]): inactive; minimal effective dose (Mus musculus [2]): 300 mg/kg; Activity (Mus musculus [11]; route intraperitoneal): 50%; Activity (Mus musculus [12]; route intraperitoneal): 25%; Activity (Mus musculus [17]; route intraperitoneal): 50%; Activity (Mus musculus [19]; route intraperitoneal): 100%
COc1ccc(/C=N/NC(=O)Nc2ccccc2Cl)cc1OC	inactive	Non-toxic	100 mg/kg		inactive	Non-toxic	Non-toxic	Non-toxic	Non-toxic	Non-toxic	Non-toxic	Activity (Mus musculus [10]; route intraperitoneal): 25%; Activity (Mus musculus [11]): inactive; Activity (Mus musculus [12]; route intraperitoneal): 25%; Activity (Mus musculus [17]): inactive; Activity (Mus musculus [19]; route intraperitoneal): 25%
C/C(=N\NC(=O)Nc1ccccc1Cl)c1ccc(C)cc1	inactive	Non-toxic		inactive	inactive	Non-toxic						
O=C(N/N=C/c1ccc(Cl)cc1Cl)Nc1ccccc1Cl	inactive	Non-toxic		inactive	inactive	Non-toxic						
O=C(NN=C1CCCC1)Nc1ccccc1Cl	inactive	Non-toxic		inactive	inactive	Non-toxic						
O=C(N/N=C/c1ccco1)Nc1ccccc1Cl	inactive	Non-toxic		inactive	inactive	Non-toxic						
